± gives the expanded uncertainty stated by the source.
Assay: xn = mol fraction of the nth substance listed
Conditions: Liquid, Vibrating tube method

CC(C)OC(C)C [diisopropyl ether] + CCCCCCO
mass density [kg/m3]
Conditions | x1 = 0.1524 | x1 = 0.3196 | x1 = 0.4906 | x1 = 0.6974 | x1 = 0.8457
293.15 K, 100 kPa | 806.7 ± 0.7 | 792.1 ± 0.7 | 776.3 ± 0.7 | 756.4 ± 0.7 | 741.2 ± 0.7
293.15 K, 500 kPa | 806.9 ± 0.7 | 792.3 ± 0.7 | 776.7 ± 0.7 | 756.8 ± 0.7 | 741.7 ± 0.7
293.15 K, 1000 kPa | 807.2 ± 0.7 | 792.7 ± 0.7 | 777.1 ± 0.7 | 757.3 ± 0.7 | 742.2 ± 0.7
293.15 K, 2000 kPa | 807.9 ± 0.7 | 793.5 ± 0.7 | 777.9 ± 0.7 | 758.3 ± 0.7 | 743.3 ± 0.7
293.15 K, 5000 kPa | 810 ± 0.7 | 795.7 ± 0.7 | 780.4 ± 0.7 | 761.1 ± 0.7 | 746.4 ± 0.7
293.15 K, 10000 kPa | 813.4 ± 0.7 | 799.5 ± 0.7 | 784.5 ± 0.7 | 765.7 ± 0.7 | 751.4 ± 0.7
293.15 K, 15000 kPa | 816.6 ± 0.7 | 803 ± 0.7 | 788.3 ± 0.7 | 770 ± 0.8 | 756.1 ± 0.8
293.15 K, 20000 kPa | 819.7 ± 0.7 | 806.4 ± 0.8 | 792 ± 0.8 | 774.1 ± 0.8 | 760.5 ± 0.8
293.15 K, 30000 kPa | 825.7 ± 0.8 | 812.8 ± 0.8 | 799 ± 0.8 | 781.7 ± 0.8 | 768.7 ± 0.8
293.15 K, 40000 kPa | 831.2 ± 0.8 | 818.6 ± 0.8 | 805.3 ± 0.8 | 788.6 ± 0.8 | 776 ± 0.8
293.15 K, 50000 kPa | 836.3 ± 0.8 | 824.1 ± 0.8 | 811.2 ± 0.8 | 795 ± 0.9 | 782.9 ± 0.9
293.15 K, 60000 kPa | 841.3 ± 0.8 | 829.4 ± 0.9 | 816.8 ± 0.9 | 801 ± 0.9 | 789.3 ± 0.9
293.15 K, 70000 kPa | 846.1 ± 0.9 | 834.5 ± 0.9 | 822.1 ± 0.9 | 806.7 ± 0.9 | 795.3 ± 1
293.15 K, 80000 kPa | 850.4 ± 0.9 | 839.1 ± 0.9 | 827.1 ± 0.9 | 812 ± 1 | 800.8 ± 1
293.15 K, 90000 kPa | 854.7 ± 0.9 | 843.6 ± 0.9 | 831.8 ± 1 | 817.1 ± 1 | 806.1 ± 1
293.15 K, 100000 kPa | 858.8 ± 0.9 | 848 ± 1 | 836.3 ± 1 | 822 ± 1 | 811.2 ± 1.1
293.15 K, 110000 kPa | 862.7 ± 1 | 852 ± 1 | 840.6 ± 1 | 826.6 ± 1.1 | 816 ± 1.1
293.15 K, 120000 kPa | 866.5 ± 1 | 856 ± 1 | 844.8 ± 1 | 830.9 ± 1.1 | 820.5 ± 1.1
293.15 K, 130000 kPa | 870.3 ± 1 | 859.9 ± 1 | 848.9 ± 1.1 | 835.2 ± 1.1 | 825 ± 1.2
293.15 K, 140000 kPa | 873.7 ± 1 | 863.5 ± 1.1 | 852.6 ± 1.1 | 839.2 ± 1.2 | 829 ± 1.2
313.15 K, 100 kPa | 791.5 ± 0.7 | 776 ± 0.7 | 759.1 ± 0.7 | 737.8 ± 0.7 | 721.4 ± 0.7
313.15 K, 500 kPa | 791.8 ± 0.7 | 776.3 ± 0.7 | 759.5 ± 0.7 | 738.2 ± 0.7 | 721.9 ± 0.7
313.15 K, 1000 kPa | 792.2 ± 0.7 | 776.7 ± 0.7 | 760 ± 0.7 | 738.8 ± 0.7 | 722.5 ± 0.7
313.15 K, 2000 kPa | 793 ± 0.7 | 777.6 ± 0.7 | 761 ± 0.7 | 739.9 ± 0.7 | 723.8 ± 0.7
313.15 K, 5000 kPa | 795.3 ± 0.7 | 780.2 ± 0.7 | 763.9 ± 0.7 | 743.3 ± 0.7 | 727.5 ± 0.7
313.15 K, 10000 kPa | 799 ± 0.7 | 784.3 ± 0.7 | 768.4 ± 0.7 | 748.4 ± 0.7 | 733.2 ± 0.7
313.15 K, 15000 kPa | 802.6 ± 0.7 | 788.2 ± 0.7 | 772.7 ± 0.8 | 753.3 ± 0.8 | 738.5 ± 0.8
313.15 K, 20000 kPa | 806 ± 0.8 | 791.9 ± 0.8 | 776.8 ± 0.8 | 757.8 ± 0.8 | 743.4 ± 0.8
313.15 K, 30000 kPa | 812.4 ± 0.8 | 798.9 ± 0.8 | 784.3 ± 0.8 | 766.2 ± 0.8 | 752.5 ± 0.8
313.15 K, 40000 kPa | 818.5 ± 0.8 | 805.4 ± 0.8 | 791.4 ± 0.8 | 773.9 ± 0.8 | 760.8 ± 0.9
313.15 K, 50000 kPa | 823.9 ± 0.8 | 811.2 ± 0.8 | 797.7 ± 0.9 | 780.9 ± 0.9 | 768.2 ± 0.9
313.15 K, 60000 kPa | 829.3 ± 0.9 | 817 ± 0.9 | 803.8 ± 0.9 | 787.5 ± 0.9 | 775.1 ± 0.9
313.15 K, 70000 kPa | 834.3 ± 0.9 | 822.3 ± 0.9 | 809.5 ± 0.9 | 793.6 ± 1 | 781.7 ± 1
313.15 K, 80000 kPa | 839 ± 0.9 | 827.3 ± 0.9 | 814.7 ± 1 | 799.3 ± 1 | 787.7 ± 1
313.15 K, 90000 kPa | 843.4 ± 0.9 | 832 ± 1 | 819.7 ± 1 | 804.6 ± 1 | 793.2 ± 1.1
313.15 K, 100000 kPa | 847.8 ± 1 | 836.6 ± 1 | 824.6 ± 1 | 809.8 ± 1.1 | 798.7 ± 1.1
313.15 K, 110000 kPa | 852 ± 1 | 841 ± 1 | 829.2 ± 1.1 | 814.6 ± 1.1 | 803.8 ± 1.1
313.15 K, 120000 kPa | 855.9 ± 1 | 845.2 ± 1 | 833.6 ± 1.1 | 819.3 ± 1.1 | 808.7 ± 1.2
313.15 K, 130000 kPa | 859.9 ± 1 | 849.2 ± 1.1 | 837.8 ± 1.1 | 823.9 ± 1.2 | 813.4 ± 1.2
313.15 K, 140000 kPa | 863.6 ± 1.1 | 853.2 ± 1.1 | 841.9 ± 1.1 | 828.2 ± 1.2 | 817.9 ± 1.2
333.15 K, 100 kPa | 775.6 ± 0.7 | 759.2 ± 0.7 | 741.1 ± 0.7 | 718.3 ± 0.7 | 700.6 ± 0.7
333.15 K, 500 kPa | 776 ± 0.7 | 759.6 ± 0.7 | 741.6 ± 0.7 | 718.8 ± 0.7 | 701.3 ± 0.7
333.15 K, 1000 kPa | 776.5 ± 0.7 | 760.1 ± 0.7 | 742.2 ± 0.7 | 719.5 ± 0.7 | 702.1 ± 0.7
333.15 K, 2000 kPa | 777.4 ± 0.7 | 761.1 ± 0.7 | 743.3 ± 0.7 | 720.8 ± 0.7 | 703.6 ± 0.7
333.15 K, 5000 kPa | 780 ± 0.7 | 764 ± 0.7 | 746.7 ± 0.7 | 724.7 ± 0.7 | 707.9 ± 0.7
333.15 K, 10000 kPa | 784.2 ± 0.7 | 768.7 ± 0.7 | 751.8 ± 0.7 | 730.6 ± 0.8 | 714.5 ± 0.8
333.15 K, 15000 kPa | 788.1 ± 0.7 | 773 ± 0.8 | 756.7 ± 0.8 | 736.1 ± 0.8 | 720.6 ± 0.8
333.15 K, 20000 kPa | 791.8 ± 0.8 | 777.1 ± 0.8 | 761.2 ± 0.8 | 741.3 ± 0.8 | 726.2 ± 0.8
333.15 K, 30000 kPa | 798.8 ± 0.8 | 784.8 ± 0.8 | 769.6 ± 0.8 | 750.7 ± 0.8 | 736.4 ± 0.8
333.15 K, 40000 kPa | 805.4 ± 0.8 | 791.9 ± 0.8 | 777.3 ± 0.8 | 759.3 ± 0.9 | 745.6 ± 0.9
333.15 K, 50000 kPa | 811.3 ± 0.8 | 798.3 ± 0.9 | 784.2 ± 0.9 | 766.8 ± 0.9 | 753.8 ± 0.9
333.15 K, 60000 kPa | 817 ± 0.9 | 804.4 ± 0.9 | 790.7 ± 0.9 | 773.8 ± 0.9 | 761.2 ± 1
333.15 K, 70000 kPa | 822.4 ± 0.9 | 810.1 ± 0.9 | 796.8 ± 0.9 | 780.5 ± 1 | 768.3 ± 1
333.15 K, 80000 kPa | 827.3 ± 0.9 | 815.4 ± 1 | 802.4 ± 1 | 786.6 ± 1 | 774.7 ± 1
333.15 K, 90000 kPa | 832.2 ± 1 | 820.4 ± 1 | 807.8 ± 1 | 792.4 ± 1.1 | 780.8 ± 1.1
333.15 K, 100000 kPa | 836.8 ± 1 | 825.3 ± 1 | 813 ± 1.1 | 797.9 ± 1.1 | 786.7 ± 1.1
333.15 K, 110000 kPa | 841.1 ± 1 | 829.8 ± 1.1 | 817.8 ± 1.1 | 803 ± 1.1 | 792 ± 1.2
333.15 K, 120000 kPa | 845.5 ± 1 | 834.4 ± 1.1 | 822.6 ± 1.1 | 808.1 ± 1.2 | 797.4 ± 1.2
333.15 K, 130000 kPa | 849.4 ± 1.1 | 838.6 ± 1.1 | 827 ± 1.2 | 812.8 ± 1.2 | 802.2 ± 1.3
333.15 K, 140000 kPa | 853.4 ± 1.1 | 842.8 ± 1.1 | – | – | –

From the NIST ThermoML archive (doi:10.1016/j.jct.2017.06.013)
